# In US20240247080A1, “GLP1/GIP/NPY2 RECEPTOR TRIPLE AGONISTS” (Boehringer Ingelheim International GmbH, priority 2022, published 2024):
# Read-outs that look alike come from different tables or passages of the source. Starred links: 1 amine or outer side, 2 acyl side, 3 side chain; linkers in the order of their positions; H or OH if unused. Positions of bridges follow the written chain, without caps; N, C: chain ends. Non-standard residues stand in square brackets, D forms with d. Groups on a side chain read outwards from the residue. Chains are numbered I, II in the order given. No end group written: not given here. *: point of attachment. C20 diacid = O=C(O)CCCCCCCCCCCCCCCCCCC(=O)*; C18 diacid = O=C(O)CCCCCCCCCCCCCCCCC(=O)*; γGlu = O=C(O)[C@H](CCC(=O)[*:2])N[*:1]; εLys = N[C@@H](CCCCN[*:1])C(=O)[*:2]; NMeQ = CN[C@@H](CCC(N)=O)C(=O)O; AEEA = NCCOCCOCC(=O)O; Aib = CC(C)(N)C(=O)O; Ahx = NCCCCCC(=O)O
# Legend:
# hGLP1R = biological target: T1, hGLP1R (Homo sapiens, UniProt P43220); test: hGLP1R CreLuc reporter gene assay in 0.5% and 100% plasma; assay type: cell-based; settings: CreLuc reporter gene assay
# T1 construct: expressed in transfected cells; host or cells: HEK-293 cells carrying a CRE-luciferase reporter gene
# Source text: (§1) Example 1: hGLPR/hGIPR/hNPY2R CreLuc Assay in 0.5% and 100% Plasma
# (§2) CHO and HEK-293 recombinant cell lines express a luciferase reporter gene under control of the cAMP responsive element (CRE). As a second recombinant protein the GLP-1 and NPY2 receptors were expressed in the reporter gene HEK cells, and the GIP receptor was expressed in the reporter gene CHO cells, respectively. Stimulation of these recombinant cells with an agonist leads to an increase of intracellular cAMP levels. In the presence of cAMP, the transcription factor CRE binding protein (CREB) binds to the CRE and to the CREB binding protein (CBP), which leads to transcription of the luciferase reporter gene. Peptides upon serial-dilution in 100% DMSO were transferred into 384-well assay plates with 5 μl pre-dispensed assay buffer (1×HBSS, 20 mM HEPES, pH7.4 supplemented with 0.5% human plasma) using acoustic dispensing on a Labcyte ECHO. Cryo-preserved transgenic reporter gene cells were thawed in assay buffer. 20 μl (10.000 cells/well) were added to the plate with the peptides and incubated for 4 hours at 37° C. in a humidified incubator. Following incubation, assay plates are equilibrated to room temperature, followed by addition of 25 μl of Bright-GIo™ Luciferase reagent, incubation at room temperature for 10 minutes and analysis of luminescence (Envision Reader). Concentration response evaluation of compounds was performed with 8 concentrations of peptides (covering four decades). EC50 values were calculated by non-linear regression using sigmoid concentration-response with variable slope. The same assays were run in the presence of 100% plasma with no additional buffer constituents.
# hGIPR = biological target: T2, hGIPR (Homo sapiens, UniProt P48546); test: hGIPR CreLuc reporter gene assay in 0.5% and 100% plasma; assay type: cell-based; settings: CreLuc reporter gene assay
# T2 construct: expressed in transfected cells; host or cells: CHO cells carrying a CRE-luciferase reporter gene
# T2 sequence (P48546 22-466): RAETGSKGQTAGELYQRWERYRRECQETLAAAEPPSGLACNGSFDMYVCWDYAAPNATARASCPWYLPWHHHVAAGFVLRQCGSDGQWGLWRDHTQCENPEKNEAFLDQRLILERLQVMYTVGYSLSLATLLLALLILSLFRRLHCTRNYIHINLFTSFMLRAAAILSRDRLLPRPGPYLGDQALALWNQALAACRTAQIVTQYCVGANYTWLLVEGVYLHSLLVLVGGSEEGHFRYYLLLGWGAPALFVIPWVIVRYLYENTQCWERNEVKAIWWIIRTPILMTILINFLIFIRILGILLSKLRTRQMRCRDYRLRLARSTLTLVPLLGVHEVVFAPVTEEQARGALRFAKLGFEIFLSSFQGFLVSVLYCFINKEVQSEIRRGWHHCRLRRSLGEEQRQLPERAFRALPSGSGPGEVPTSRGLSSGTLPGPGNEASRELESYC
# Source text: as §1, §2
# [1] = 0.5% human plasma, read-out: hGLP1R 0.5% hP
# [2] = 100% human plasma, read-out: hGLP1R 100% hP
# [3] = 0.5% human plasma, read-out: hGIPR 0.5% hP
# [4] = 100% human plasma, read-out: hGIPR 100% hP
# T1 sequence (P43220 24-463): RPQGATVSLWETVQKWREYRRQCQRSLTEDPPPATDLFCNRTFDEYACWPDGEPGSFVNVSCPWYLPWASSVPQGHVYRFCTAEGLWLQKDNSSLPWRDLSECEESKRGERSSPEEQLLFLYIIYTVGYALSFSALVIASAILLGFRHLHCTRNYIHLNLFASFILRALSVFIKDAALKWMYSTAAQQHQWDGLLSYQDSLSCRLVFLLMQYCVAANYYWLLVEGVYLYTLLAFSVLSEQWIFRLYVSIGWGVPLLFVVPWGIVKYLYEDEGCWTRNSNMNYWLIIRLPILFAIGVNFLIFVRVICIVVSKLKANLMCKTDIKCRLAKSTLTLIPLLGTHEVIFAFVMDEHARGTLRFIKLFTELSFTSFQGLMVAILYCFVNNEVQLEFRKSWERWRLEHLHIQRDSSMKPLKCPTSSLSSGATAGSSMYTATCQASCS
substance,measurement,setting,value
"H-Y[Aib]EGTFTSDYSI[Aib]LEKQAQ[Aib]AFVQWLIK([γGlu-γGlu-γGlu-γGlu-γGlu-C20 diacid])GGPESGASLRHYYNWLTRQRY-NH2 [Compound 29, Y-Aib-E-G-T-F-T-S-D-Y-S-I-Aib-L-E-K-Q-A-Q-Aib-A-F-V-Q-W-L-I-K(1,3)-GGPESGASLRHYYNWLTRQRY-NH2.C20DA-gGlu-gGlu-gGlu-gGlu-gGlu(1,2)]",EC50,hGLP1R; [1],0.13 nM
same,EC50,hGLP1R; [2],6.74 nM
same,EC50,hGIPR; [3],0.23 nM
"H-Y[Aib]EGTFTSDYSI[Aib]LEKQAQ[Aib]AFVQWLIK([εLys-γGlu-γGlu-γGlu-γGlu-γGlu-C20 diacid])GGPESGASLRHYYNWLTRQRY-NH2 [Compound 61, Y-Aib-E-G-T-F-T-S-D-Y-S-I-Aib-L-E-K-Q-A-Q-Aib-A-F-V-Q-W-L-I-K(1,3)-GGPESGASLRHYYNWLTRQRY-NH2.C20DA-gGlu-gGlu-gGlu-gGlu-gGlu-eLys(1,2)]",EC50,hGLP1R; [1],0.11 nM
same,EC50,hGLP1R; [2],3.95 nM
same,EC50,hGIPR; [3],0.36 nM
same,EC50,hGIPR; [4],0.56 nM
"H-Y[Aib]EGTFTSDYSI[Aib]LEEQAQ[Aib]AFVQWLIK([εLys-γGlu-γGlu-γGlu-γGlu-γGlu-C20 diacid])GGPSSGASLRHYYNWLTRQRY-NH2 [Compound 34, Y-Aib-E-G-T-F-T-S-D-Y-S-I-Aib-L-E-E-Q-A-Q-Aib-A-F-V-Q-W-L-I-K(1,3)-GGPSSGASLRHYYNWLTRQRY-NH2.C20DA-gGlu-gGlu-gGlu-gGlu-gGlu-eLys(1,2)]",EC50,hGLP1R; [1],0.09 nM
same,EC50,hGLP1R; [2],1.39 nM
same,EC50,hGIPR; [3],0.13 nM
same,EC50,hGIPR; [4],1.61 nM
"H-Y[Aib]EGTFTSDYSI[Aib]LE[Aib]QAQ[Aib]AFVEWLIK([εLys-γGlu-γGlu-γGlu-γGlu-γGlu-γGlu-C20 diacid])GGPSSGASLRHYYNWLTRQRY-NH2 [Compound 199, Y-Aib-E-G-T-F-T-S-D-Y-S-I-Aib-L-E-Aib-Q-A-Q-Aib-A-F-V-E-W-L-I-K(1,3)-GGPSSGASLRHYYNWLTRQRY-NH2.C20DA-gGlu-gGlu-gGlu-glu-gGlu-gGlu-eLys(1,2)]",EC50,hGIPR; [3],0.94 nM
"H-Y[Aib]EGTFTSDYSI[Aib]LEDQAQ[Aib]AFVEWLIK([εLys-γGlu-γGlu-γGlu-γGlu-γGlu-γGlu-C20 diacid])GGPSSGASLRHYYNWLTRQRY-NH2 [Compound 90, Y-Aib-E-G-T-F-T-S-D-Y-S-I-Aib-L-E-D-Q-A-Q-Aib-A-F-V-E-W-L-I-K(1,3)-GGPSSGASLRHYYNWLTRQRY-NH2.C20DA-gGlu-gGlu-gGlu-gGlu-gGlu-gGlu-eLys(1,2)]",EC50,hGLP1R; [1],0.3 nM
same,EC50,hGIPR; [3],1.03 nM
"H-Y[Aib]EGTFTSDYSI[Aib]LEKQAQ[Aib]AFVQWLIK([εLys-γGlu-γGlu-γGlu-γGlu-γGlu-γGlu-C20 diacid])GGPSEGASLRHYYNWLTR[NMeQ]RY-NH2 [Compound 115, Y-Aib-E-G-T-F-T-S-D-Y-S-I-Aib-L-E-K-Q-A-Q-Aib-A-F-V-Q-W-L-I-K(1,3)-G-G-P-S-E-G-A-S-L-R-H-Y-Y-N-W-L-T-R-NMeQ-R-Y-NH2.C20DA-gGlu-gGlu-gGlu-gGlu-gGlu-gGlu-eLys(1,2)]",EC50,hGLP1R; [1],0.12 nM
same,EC50,hGIPR; [3],0.51 nM
"Y[Aib]EGTFTSDYSI[Aib]LEKQAQ[Aib]AFVQWLIK([AEEA-AEEA-γGlu-γGlu-γGlu-C18 diacid])GGPSEGASLRHYYNWLTRQRY-NH2 [Compound 266, Y-Aib-E-G-T-F-T-S-D-Y-S-I-Aib-L-E-K-Q-A-Q-Aib-A-F-V-Q-W-L-I-K(1,3)-GGPSEGASLRHYYNWLTRQRY-NH2.C18DA-gGlu-gGlu-gGlu-OEG-OEG(1,2)]",EC50,hGLP1R; [1],0.1 nM
same,EC50,hGLP1R; [2],2.21 nM
same,EC50,hGIPR; [3],0.13 nM
same,EC50,hGIPR; [4],0.65 nM
"H-Y[Aib]EGTFTSDYSI[Aib]LEKQAQ[Aib]AFVQWLIK([εLys-γGlu-γGlu-γGlu-γGlu-γGlu-γGlu-C20 diacid])GGPRYYASLRHYYNWLTRQRY-NH2 [Compound 14, Y-Aib-E-G-T-F-T-S-D-Y-S-I-Aib-L-E-K-Q-A-Q-Aib-A-F-V-Q-W-L-I-K(1,3)-GGPRYYASLRHYYNWLTRQRY-NH2.C20DA-gGlu-gGlu-gGlu-gGlu-gGlu-gGlu-eLys(1,2)]",EC50,hGLP1R; [1],0.4 nM
same,EC50,hGIPR; [3],0.71 nM
"H-Y[Aib]EGTFTSDYSI[Aib]LEKQAQ[Aib]EFVQWLIK([AEEA-AEEA-Glu-Glu-Glu-C18 diacid])GGPSEGASLRHYYNWLTRQRY-NH2 [Compound 157, Y-Aib-E-G-T-F-T-S-D-Y-S-I-Aib-L-E-K-Q-A-Q-Aib-E-F-V-Q-W-L-I-K(1,3)-GGPSEGASLRHYYNWLTRQRY-NH2.C18DA-E-E-E-OEG-OEG(1,2)]",EC50,hGLP1R; [1],0.35 nM
same,EC50,hGIPR; [3],0.38 nM
same,EC50,hGIPR; [4],1.58 nM
"H-Y[Aib]EGTFTSDYSI[Aib]LEKQAE[Aib]AFVEWLIK([γGlu-γGlu-γGlu-γGlu-C20 diacid])GGPSEGASLRHYYNWLTRQRY-NH2 [Compound 280, Y-Aib-E-G-T-F-T-S-D-Y-S-I-Aib-L-E-K-Q-A-E-Aib-A-F-V-E-W-L-I-K(1,3)-GGPSEGASLRHYYNWLTRQRY-NH2.C20DA-gGlu-gGlu-gGlu-gGlu(1,2)]",EC50,hGLP1R; [1],0.44 nM
same,EC50,hGIPR; [3],0.38 nM
"H-Y[Aib]EGTFTSDYSI[Aib]LEKQAQ[Aib]AFVEWLIK([εLys-γGlu-γGlu-γGlu-γGlu-γGlu-γGlu-C20 diacid])GGPSSGISLRHYYNWLTRQRY-NH2 [Compound 94, Y-Aib-E-G-T-F-T-S-D-Y-S-I-Aib-L-E-K-Q-A-Q-Aib-A-F-V-E-W-L-I-K(1,3)-GGPSSGISLRHYYNWLTRQRY-NH2.C20DA-gGlu-gGlu-gGlu-gGlu-gGlu-gGlu-eLys(1,2)]",EC50,hGLP1R; [1],0.09 nM
same,EC50,hGIPR; [3],0.22 nM
same,EC50,hGIPR; [4],1.04 nM
"H-Y[Aib]EGTFTSDYSI[Aib]LEKQAQ[Aib]AFVEWLIK([γGlu-γGlu-γGlu-γGlu-γGlu-γGlu-C20 diacid])GGPSSGASLRHYYNWLTRQRY-NH2 [Compound 235, Y-Aib-E-G-T-F-T-S-D-Y-S-I-Aib-L-E-K-Q-A-Q-Aib-A-F-V-E-W-L-I-K(1,3)-GGPSSGASLRHYYNWLTRQRY-NH2.C20DA-gGlu-gGlu-gGlu-gGlu-gGlu-gGlu(1,2)]",EC50,hGLP1R; [1],0.12 nM
same,EC50,hGIPR; [3],0.34 nM
same,EC50,hGIPR; [4],2.81 nM
"H-Y[Aib]EGTFTSDYSI[Aib]LEKEKQ[Aib]AFVEWLIK([εLys-γGlu-γGlu-γGlu-γGlu-γGlu-γGlu-C20 diacid])GGPSSGASLRHYYNWLTRQRY-NH2 [Compound 69, Y-Aib-E-G-T-F-T-S-D-Y-S-I-Aib-L-E-K-E-K-Q-Aib-A-F-V-E-W-L-I-K(1,3)-GGPSSGASLRHYYNWLTRQRY-NH2.C20DA-gGlu-gGlu-gGlu-gGlu-gGlu-gGlu-eLys(1,2)]",EC50,hGLP1R; [1],1.48 nM
same,EC50,hGIPR; [3],0.8 nM
"I: H-Y[Aib]EGTFTSDYSI[Aib]LEKQAQ[Aib]AFVEWLIKGGPSEGASLRHYYNWLTRQRY-NH2 / II: {C18 diacid}-EEEEEE (amide I:28-II:C) [Compound 302, Y-Aib-E-G-T-F-T-S-D-Y-S-I-Aib-L-E-K-Q-A-Q-Aib-A-F-V-E-W-L-I-K(1,3)-GGPSEGASLRHYYNWLTRQRY-NH2.C18DA-E-E-E-E-E-E(1,2)]",EC50,hGLP1R; [1],0.15 nM
same,EC50,hGIPR; [3],0.33 nM
"H-Y[Aib]EGTFTSDYSI[Aib]LEKQAQ[Aib]EFVEWLIK([γGlu-γGlu-γGlu-γGlu-C20 diacid])GGPSEGASLRHYYNWLTRQRY-NH2 [Compound 271, Y-Aib-E-G-T-F-T-S-D-Y-S-I-Aib-L-E-K-Q-A-Q-Aib-E-F-V-E-W-L-I-K(1,3)-GGPSEGASLRHYYNWLTRQRY-NH2.C20DA-gGlu-gGlu-gGlu-gGlu(1,2)]",EC50,hGIPR; [3],0.62 nM
same,EC50,hGIPR; [4],2.62 nM
"H-Y[Aib]EGTFTSDYSI[Aib]LEKQAQ[Aib]EFVEWLIK([Ahx-γGlu-γGlu-γGlu-γGlu-γGlu-γGlu-C18 diacid])GGPSEGASLRHYYNWLTRQRY-NH2 [Compound 279, Y-Aib-E-G-T-F-T-S-D-Y-S-I-Aib-L-E-K-Q-A-Q-Aib-E-F-V-E-W-L-I-K(1,3)-GGPSEGASLRHYYNWLTRQRY-NH2.C18DA-gGlu-gGlu-gGlu-gGlu-gGlu-gGlu-AHX(1,2)]",EC50,hGIPR; [3],0.71 nM
